Reference: patent US9840510B1, “Pyrazolo[1,5-a]pyrimidinyl carboxamide compounds and their use in the treatment of medical disorders” (Lysosomal Therapeutics Inc., priority 2016, dated 2017)
≈ marks a conversion by molar mass, not a printed value.

Test: Compound solubility in water
Format: physicochemical

First: Cc1cc(-c2cccnc2C#N)nc2c(C(=O)N[C@H](C3CC3)C(F)(F)F)cnn12 [III-365]
Second: Cc1cc(-c2cccnc2F)nc2c(C(=O)NC(C3CC3)C(F)(F)F)cnn12 (stereo not shown) [III-85]
The solubility of the first is 1.8-fold higher: 1.8 µg/mL (≈ 4.5 µM) for the first, 1 µg/mL (≈ 2.54 µM) for the second.

Going from `Cc1cc(-c2noc(C(C)C)n2)nc2c(C(=O)N[C@@H](C3CC3)C(F)(F)F)cnn12` [III-394] to `Cc1cc(-c2cc(C)n3ncc(C(=O)N[C@H](C4CC4)C(F)(F)F)c3n2)on1` [III-343], the solubility rises from 0.7 µg/mL (≈ 1.71 µM) to 1.5 µg/mL (≈ 3.95 µM) (2.1-fold).

`Cc1cc(N2CCN(C(C)C)C2=O)nc2c(C(=O)NC(C3CC3)C(F)(F)F)cnn12` (stereo not shown) [III-225] and `Cc1cc(N2CCCN(C(C)C)C2=O)nc2c(C(=O)NC(C)C(F)(F)F)cnn12` (stereo not shown) [III-259] are within 1.5-fold of each other in solubility: 19.3 µg/mL (≈ 45.5 µM) for the first, 25.8 µg/mL (≈ 62.6 µM) for the second.

Going from `Cc1cc(-c2cccnc2C(F)(F)F)nc2c(C(=O)N[C@H](C3CC3)C(F)(F)F)cnn12` [III-355] to `Cc1cc(-c2cnccc2C(F)(F)F)nc2c(C(=O)N[C@H](C3CC3)C(F)(F)F)cnn12` [III-353], the solubility rises from 0.1 µg/mL (≈ 0.226 µM) to 8.3 µg/mL (≈ 18.7 µM) (83-fold).

First: Cc1cc(-c2ccc(F)cc2C#N)nc2c(C(=O)N[C@@H](C)C(F)(F)F)cnn12 [III-156]
Second: Cc1cc(-c2sccc2C#N)nc2c(C(=O)NC(C)C(F)(F)F)cnn12 (stereo not shown) [III-300]
The solubility of the first is 4.7-fold lower: 0.3 µg/mL (≈ 0.767 µM) for the first, 1.4 µg/mL (≈ 3.69 µM) for the second.

`Cc1cc(N2CCNC2=O)nc2c(C(=O)NC(C3CC3)C(F)(F)F)cnn12` (stereo not shown) [III-228] and `Cc1cc(N2CCC(F)(F)C2)nc2c(C(=O)NC(C3CC3)C(F)(F)F)cnn12` (stereo not shown) [III-67] are within 1.5-fold of each other in solubility: 2.4 µg/mL (≈ 6.28 µM) for the first, 1.9 µg/mL (≈ 4.71 µM) for the second.

Compared with `Cc1cc(-c2cncc(Cl)c2)nc2c(C(=O)N[C@@H](C)C3CC3)cnn12` [III-290], `Cc1cc(-c2ccc(F)c(C(N)=O)c2)nc2c(C(=O)N[C@@H](C)C3CC3)cnn12` [III-160] is 1.9-fold lower in solubility: 2.1 µg/mL (≈ 5.9 µM) for the first, 1.1 µg/mL (≈ 2.88 µM) for the second.

First: COc1c(F)cccc1-c1cc(C)n2ncc(C(=O)NC(C3CC3)C(F)(F)F)c2n1 (stereo not shown) [III-139]
Second: COc1c(F)cccc1-c1cc(C)n2ncc(C(=O)NC(C)C(F)(F)F)c2n1 (stereo not shown) [III-140]
The solubility of the first is 11-fold lower: 0.1 µg/mL (≈ 0.237 µM) for the first, 1.1 µg/mL (≈ 2.78 µM) for the second.

`Cc1cc(C(F)(F)F)nc2c(C(=O)NC(C)(C)C3CC3)cnn12` [III-68] and `Cc1cc(Cl)nc2c(C(=O)NC(C)(C)C3CC3)cnn12` [III-15] are within 1.5-fold of each other in solubility: 11.9 µg/mL (≈ 36.5 µM) for the first, 14.1 µg/mL (≈ 48.2 µM) for the second.

`Cc1cc(C)n2ncc(C(=O)N[C@H]3CC[C@H](OCC(C)C)CC3)c2n1` [III-191] and `CO[C@H]1CC[C@H]([C@@H](C)NC(=O)c2cnn3c(C)cc(C)nc23)CC1` [III-403] are within 1.5-fold of each other in solubility: 26.3 µg/mL (≈ 76.4 µM) for the first, 21.4 µg/mL (≈ 64.8 µM) for the second.

`Cc1cc(-c2cc(C)n3ncc(C(=O)NC(C4CC4)C(F)(F)F)c3n2)sn1` (stereo not shown) [III-214] and `Cc1cncc(-c2cc(C)n3ncc(C(=O)N[C@H](C4CC4)C(F)(F)F)c3n2)c1` [III-276] are within 1.5-fold of each other in solubility: 2.3 µg/mL (≈ 5.82 µM) for the first, 1.8 µg/mL (≈ 4.62 µM) for the second.

Going from `Cc1cc(-c2ncccc2Cl)nc2c(C(=O)NC(C3CC3)C(F)(F)F)cnn12` (stereo not shown) [III-206] to `Cc1cc(-c2ncccc2F)nc2c(C(=O)NC(C3CC3)C(F)(F)F)cnn12` (stereo not shown) [III-203], the solubility falls from 2.1 µg/mL (≈ 5.12 µM) to 0.07 µg/mL (≈ 0.178 µM) (30-fold).

Compared with `Cc1cc(-c2ccc3ocnc3c2)nc2c(C(=O)NC(C)C(F)(F)F)cnn12` (stereo not shown) [III-169], `Cc1cc(-c2ccc3ocnc3c2)nc2c(C(=O)N[C@H](C3CC3)C(F)(F)F)cnn12` [III-109] is 3.2-fold lower in solubility: 1.6 µg/mL (≈ 4.11 µM) for the first, 0.5 µg/mL (≈ 1.2 µM) for the second.

`Cc1cc(N2C[C@@H](c3ccccc3)OC2=O)nc2c(C(=O)NC(C3CC3)C(F)(F)F)cnn12` (stereo partly shown) [III-315] and `Cc1cc(-n2ccc(Cl)n2)nc2c(C(=O)NC(C3CC3)C(F)(F)F)cnn12` (stereo not shown) [III-107] are the same in solubility: 0.1 µg/mL (≈ 0.218 µM) for the first, 0.1 µg/mL (≈ 0.251 µM) for the second.

`Cc1ccncc1-c1cc(C)n2ncc(C(=O)NC(C3CC3)C(F)(F)F)c2n1` (stereo not shown) [III-274] and `Cc1cc(-c2cnccc2Cl)nc2c(C(=O)NC(C3CC3)C(F)(F)F)cnn12` (stereo not shown) [III-122] are within 1.5-fold of each other in solubility: 2.3 µg/mL (≈ 5.91 µM) for the first, 2.1 µg/mL (≈ 5.12 µM) for the second.

Going from `Cc1cc(-c2cc(F)cc(C#N)c2)nc2c(C(=O)N[C@@H](C)C3CC3)cnn12` [III-128] to `Cc1cc(-c2cc(F)ccc2C#N)nc2c(C(=O)N[C@@H](C)C3CC3)cnn12` [III-396], the solubility falls from 3 µg/mL (≈ 8.26 µM) to 0.3 µg/mL (≈ 0.826 µM) (10-fold).

`Cc1cc(-c2ccc(Cl)cn2)nc2c(C(=O)NC(C3CC3)C(F)(F)F)cnn12` (stereo not shown) [III-208] and `Cc1cc(-c2cccc(Cl)n2)nc2c(C(=O)NC(C3CC3)C(F)(F)F)cnn12` (stereo not shown) [III-237] are within 1.5-fold of each other in solubility: 0.04 µg/mL (≈ 0.0976 µM) for the first, 0.05 µg/mL (≈ 0.122 µM) for the second.

Going from `COc1cccc(-c2cc(C)n3ncc(C(=O)NC(C)C(F)(F)F)c3n2)c1` (stereo not shown) [III-55] to `COc1ccc(F)c(-c2cc(C)n3ncc(C(=O)N[C@H](C)C(F)(F)F)c3n2)c1` [III-97], the solubility falls from 1.7 µg/mL (≈ 4.49 µM) to 0.2 µg/mL (≈ 0.505 µM) (8.5-fold).

Going from `Cc1cc(-c2cccc3ncsc23)nc2c(C(=O)N[C@@H](C)C3CC3)cnn12` [III-222] to `Cc1cc(-c2ccc3scnc3c2)nc2c(C(=O)N[C@@H](C)C3CC3)cnn12` [III-192], the solubility falls from 0.6 µg/mL (≈ 1.59 µM) to 0.2 µg/mL (≈ 0.53 µM) (3-fold).

Going from `COc1cc(F)ccc1-c1cc(C)n2ncc(C(=O)N[C@@H](C)C3CC3)c2n1` [III-146] to `COc1cccc(-c2cc(C)n3ncc(C(=O)N[C@@H](C)C4CC4)c3n2)c1` [III-57], the solubility rises from 0.9 µg/mL (≈ 2.44 µM) to 2.7 µg/mL (≈ 7.7 µM) (3-fold).

Compared with `C#CC(C)(C)NC(=O)c1cnn2c(C)cc(-c3cccc(F)c3)nc12` [III-75], `Cc1cc(-c2ccncc2)nc2c(C(=O)NC(C)(C)C3CC3)cnn12` [III-20] is 10-fold higher in solubility: 0.6 µg/mL (≈ 1.78 µM) for the first, 6.3 µg/mL (≈ 18.8 µM) for the second.

Going from `Cc1cc(-c2cccc(C#N)n2)nc2c(C(=O)NC(C3CC3)C(F)(F)F)cnn12` (stereo not shown) [III-133] to `Cc1cc(-c2cccc(C(N)=O)n2)nc2c(C(=O)NC(C3CC3)C(F)(F)F)cnn12` (stereo not shown) [III-161], the solubility rises from 0.2 µg/mL (≈ 0.5 µM) to 1 µg/mL (≈ 2.39 µM) (5-fold).

`Cc1ncc(-c2cc(C)n3ncc(C(=O)NC(C)(C)C4CC4)c3n2)o1` [III-252] and `Cc1cc(-c2ccncc2)n2ncc(C(=O)NC(C)(C)C3CC3)c2n1` [III-21] are within 1.5-fold of each other in solubility: 11 µg/mL (≈ 32.4 µM) for the first, 10 µg/mL (≈ 29.8 µM) for the second.

Going from `Cc1cc(-c2cnccc2F)nc2c(C(=O)NC(C)C(F)(F)F)cnn12` (stereo not shown) [III-199] to `COc1ccncc1-c1cc(C)n2ncc(C(=O)NC(C)C(F)(F)F)c2n1` (stereo not shown) [III-269], the solubility rises from 7.8 µg/mL (≈ 21.2 µM) to 12.7 µg/mL (≈ 33.5 µM) (1.6-fold).

Going from `COc1ccc(-c2cc(C)n3ncc(C(=O)NC(C4CC4)C(F)(F)F)c3n2)cn1` (stereo not shown) [III-268] to `Cc1cncc(-c2cc(C)n3ncc(C(=O)NC(C4CC4)C(F)(F)F)c3n2)c1` (stereo not shown) [III-275], the solubility rises from 1.2 µg/mL (≈ 2.96 µM) to 2.6 µg/mL (≈ 6.68 µM) (2.2-fold).

Going from `Cc1cc(-c2cccc(-n3cccn3)c2)nc2c(C(=O)NC(C3CC3)C(F)(F)F)cnn12` (stereo not shown) [III-415] to `Cc1cc(-c2ccc3ncn(C)c3c2)nc2c(C(=O)NC(C3CC3)C(F)(F)F)cnn12` (stereo not shown) [III-304], the solubility falls from 1.2 µg/mL (≈ 2.72 µM) to 0.4 µg/mL (≈ 0.934 µM) (3-fold).

Going from `Cc1ccc(-c2cc(C)n3ncc(C(=O)NC(C)C(F)(F)F)c3n2)cn1` (stereo not shown) [III-283] to `Cc1cc(-c2ccc(F)cc2)nc2c(C(=O)N[C@@H](C)C(F)(F)F)cnn12` [III-360], the solubility falls from 12.7 µg/mL (≈ 35 µM) to 0.7 µg/mL (≈ 1.91 µM) (18-fold).

First: Cc1cc(-c2cccc(F)c2C#N)nc2c(C(=O)N[C@@H](C)C3CC3)cnn12 [III-398]
Second: Cc1cc(-c2ccc3c(c2)OCO3)nc2c(C(=O)N[C@@H](C)C3CC3)cnn12 [III-210]
The solubility of the first is 12-fold lower: 0.2 µg/mL (≈ 0.55 µM) for the first, 2.4 µg/mL (≈ 6.59 µM) for the second.

Going from `Cc1cc(-c2cccc3ncoc23)nc2c(C(=O)NC(C)(C)C(F)(F)F)cnn12` [III-219] to `Cc1cc(-c2cccc3ncsc23)nc2c(C(=O)NC(C)C(F)(F)F)cnn12` (stereo not shown) [III-221], the solubility falls from 2.7 µg/mL (≈ 6.69 µM) to 0.2 µg/mL (≈ 0.493 µM) (14-fold).

Going from `Cc1cc(NC2CC2)nc2c(C(=O)NC(C3CC3)C3CC3)cnn12` [III-78] to `Cc1cc(-c2ccccn2)n2ncc(C(=O)N[C@@H](C)C3CC3)c2n1` [III-25], the solubility rises from 5.6 µg/mL (≈ 17.2 µM) to 22.5 µg/mL (≈ 70 µM) (4-fold).

Compound `Cc1cc(-c2cnccc2C(F)(F)F)nc2c(C(=O)NC(C)C(F)(F)F)cnn12` (stereo not shown) [III-284] has a solubility of 13.2 µg/mL (≈ 31.6 µM).
